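Following 48 hours of exposure in 96-well plates, responses at five concentrations were used to interpolate endpoints linearly. At the TGI there is no net growth.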
Tests used:
Test in all cases: NCI tumour cell line growth inhibition, 48 h
[1] = tested on: DMS 273 small cell lung
[2] = tested on: RXF-631 renal
[3] = tested on: CCRF-CEM leukemia
[4] = tested on: SK-MEL-2 melanoma
[5] = tested on: SF-268 CNS
[6] = tested on: SF-295 CNS
[7] = tested on: IGROV1 ovarian
[8] = tested on: TK-10 renal
[9] = tested on: U251 CNS
[10] = tested on: SK-MEL-28 melanoma
[11] = tested on: RXF 393 renal
[12] = tested on: KM20L2 colon
[13] = tested on: RPMI-8226 leukemia
[14] = tested on: COLO 205 colon
[15] = tested on: MALME-3M melanoma
[16] = tested on: SNB-75 CNS
[17] = tested on: SR leukemia
[18] = tested on: SNB-78 CNS
[19] = tested on: UO-31 renal
[20] = tested on: HOP-18 NSCLC
[21] = tested on: MOLT-4 leukemia
[22] = tested on: UACC-62 melanoma
[23] = tested on: CAKI-1 renal
[24] = tested on: OVCAR-5 ovarian
[25] = tested on: NCI-H23 lung
[26] = tested on: NCI-H522 lung
[27] = tested on: SNB-19 CNS
[28] = tested on: HOP-92 NSCLC
[29] = tested on: A549 NSCLC
[30] = tested on: KM12 colon
[31] = tested on: HOP-62 NSCLC
[32] = tested on: M19-MEL melanoma
[33] = tested on: SK-OV-3 ovarian
[34] = tested on: OVCAR-4 ovarian
[35] = tested on: XF 498 CNS
[36] = tested on: OVCAR-8 ovarian
[37] = tested on: 786-0 renal
[38] = tested on: SF-539 CNS
[39] = tested on: A498 renal
[40] = tested on: LOX IMVI melanoma
[41] = tested on: DMS 114 small cell lung
[42] = tested on: HCT-116 colon
[43] = tested on: LXFL 529 NSCLC
[44] = tested on: NCI-H226 lung
[45] = tested on: UACC-257 melanoma
[46] = tested on: SW-620 colon
[47] = tested on: EKVX NSCLC
[48] = tested on: HCT-15 colon
[49] = tested on: HCC-2998 colon
[50] = tested on: SK-MEL-5 melanoma
[51] = tested on: NCI-H460 lung
[52] = tested on: ACHN renal
[53] = tested on: DLD-1 colon
[54] = tested on: HT29 colon
[55] = tested on: HL-60(TB) leukemia
[56] = tested on: OVCAR-3 ovarian
[57] = tested on: M14 melanoma
[58] = tested on: SN12C renal

COC(=O)C(CCCCCCCC(C(=O)OC)c1nc2n(c1O)C(=N)N=N2)c1nc2n(c1O)C(=N)N=N2 (stereo not drawn)
TGI [1]: > 100 µM
TGI [2]: > 100 µM
TGI [3]: > 100 µM
TGI [4]: > 100 µM
TGI [5]: > 100 µM
TGI [6]: > 100 µM
TGI [7]: > 100 µM
TGI [8]: > 100 µM
TGI [9]: > 100 µM
TGI [10]: > 100 µM
TGI [11]: > 100 µM
TGI [12]: > 100 µM
TGI [13]: > 100 µM
TGI [14]: > 100 µM
TGI [15]: > 100 µM
TGI [16]: > 85.6 µM
TGI [17]: > 100 µM
TGI [18]: > 100 µM
TGI [19]: > 100 µM
TGI [20]: > 100 µM
TGI [21]: > 100 µM
TGI [22]: > 100 µM
TGI [23]: > 100 µM
TGI [24]: > 100 µM
TGI [25]: > 100 µM
TGI [26]: > 100 µM
TGI [27]: > 100 µM
TGI [28]: > 100 µM
TGI [29]: > 100 µM
TGI [30]: > 100 µM
TGI [31]: > 100 µM
TGI [32]: > 68.3 µM
TGI [33]: > 100 µM
TGI [34]: > 100 µM
TGI [35]: > 100 µM
TGI [36]: > 100 µM
TGI [37]: > 100 µM
TGI [38]: > 100 µM
TGI [39]: > 100 µM
TGI [40]: > 100 µM
TGI [41]: > 100 µM
TGI [42]: > 100 µM
TGI [43]: > 100 µM
TGI [44]: > 100 µM
TGI [45]: > 100 µM
TGI [46]: > 100 µM
TGI [47]: > 100 µM
TGI [48]: > 100 µM
TGI [49]: > 100 µM
TGI [50]: > 100 µM
TGI [51]: > 100 µM
TGI [52]: > 100 µM
TGI [53]: > 100 µM
TGI [54]: > 100 µM
TGI [55]: > 100 µM
TGI [56]: > 100 µM
TGI [57]: > 100 µM
TGI [58]: > 100 µM

From PubChem BioAssay (NCI)
